Data: patent publication US20190060249A1 (priority 2017, published 2019)

Key:
[1] = tested on: mouse primary salivary sphere lysate; test: ALDH fluorescence-coupled enzymatic assay in salivary sphere lysate; format: biochemical; conditions: 10 mM acetaldehyde, 100 μM Alda-341
Method: Assay conditions were modified from the original enzyme assay protocol above using 50 mM NaPPi buffer (pH 7.4), 2.5 mM NAD^+, 10 mM acetaldehyde or all-trans-retinal substrate with the addition of 1 U/mL diaphorase and 0.1 mM resazurin for the secondary reaction. Measurements were collected in triplicate at 25° C.
All measurements were collected in triplicate, and error bars represent SEM. *=p<0.05; ***=p<0.001 (Student's t-test).

[2] = tested on: mouse model of radiation-induced hyposalivation; test: Mouse model of radiation-induced hyposalivation; format: in vivo
Text: In one experiment, mice were irradiated with a single dose of 15 Gy and in a second experiment with 6 Gy/d for 5 d for a total of 30 Gy. […] Starting 8 weeks after radiation, the control and treatment groups were further segmented into four groups.
On day 5 of the 30 Gy radiation dose, SMG were removed, fixed, and stained for cleaved caspase 3 to determine the extent of apoptosis (FIG. 4E).
Saliva collection: Female C57/BL-6 mice, 8-10 weeks old, were ordered from Jackson Labs. […] 15 Gy single dose or 30 Gy fractionated over 5 d (6 Gy/d) were delivered to the SMG with the rest of the body lead shielded. Stimulated saliva was measured as described in, Lombaert, I. M., Brunsting, J. F., Wierenga, P. K., Faber, H., Stokman, M. A., Kok, T., Visser, W. H., Kampinga, H. H., de Haan, G., and Coppes, R. P. (2008) Rescue of salivary gland function after stem cell transplantation in irradiated glands. PloS one 3, e2063. Mice were anesthetized with a ketamine (80 mg/kg) and xylazine (16 mg/kg) mixture delivered by intraperitoneal injection and subcutaneously injected with 2 mg/kg pilocarpine. Saliva was collected for 15 minutes. Saliva volume was calculated by assuming […] and was normalized to the mouse body weight by dividing the total collected saliva volume by the mass of the mouse (kg).
Periodic acid schiff staining and acinar quantification: SMG were removed from mice, fixed in 10% formalin for 24 h, and paraffin-embedded. 10 images per group were taken at random at 30× magnification using a Leica DM6000 B microscope. Acinar regions were quantified using RT_Image software (Graves, E. E., Quon, A., and Loo, B. W., Jr. (2007) RT_Image: an open-source tool for investigating PET in radiation oncology. Technology in cancer research & treatment 6, 111-121). Images were separated into red, green, and blue color channels, blurred using a 20 pixel box filter, and segmented using an intensity contour of 110 with a minimum area of 100 um^2. Acinar area was calculated as a percentage of acinar area relative to the area of the microscopy field.
Cleaved caspase 3 staining: SMG were removed from mice, fixed in 10% formalin for 24 h, and paraffin-embedded. Sections were stained with Caspase 3 rabbit antibody (Cell Signaling, 9664), 1:200 dilution, and DAPI. Three random images using red and blue filters were taken at 100× magnification with a Leica DM6000 B microscope from each gland (6-8 glands/group) and quantified by counting cleaved caspase-3 positive (red) cells per field.
RNA-sequencing: Samples were extracted using Qiagen miRNeasy Kit (217084). Extracted samples were assessed for quality using Agilent Pico-RNA bio-analyzer chip (5067-1513). The Smarter Ultra Low Input RNA kit (Clontech, 634848) was used to generate cDNA from total RNA. Amplified cDNA was purified using SPRI Ampure Beads from Beckman Coulter, and quality and quantity were measured using a High Sensitivity DNA chip on an Agilent 2100 Bioanalyzer. cDNA was sheared to an average length of 300 BP using a Covaris S2, and libraries were generated following the Clontech Low Input Library Prep kit (634947). Indexed libraries were pooled and quantitated for sequencing. Sequencing data was generated on an Illumina HiSeq 4000. The processed RNAseq reads were imported into BRB-ArrayTools, an integrated package for the visualization and statistical analysis of gene expression data developed by Dr. Richard Simon and BRB-ArrayTools Development Team. The imported expression values were log2-transformed and subjected to quantile normalization by Robust Multi-chip Average (RMA). Genes that show differential expression between those untreated and irradiated (univariate p-value <0.01) were selected. To identify functional networks and pathways enriched in these significant genes, these genes were analyzed using MetaCore™. For heatmap generation the Clustering function of ArrayTools was used, with experimental samples in fixed grouping and order, and genes ordered by hierarchical clustering.

[3] = human, 2 g/d oral Alda-341 for 2 weeks
Text: Saliva and plasma samples were collected at baseline, and at the time of surgery, and normal salivary gland tissue was collected at the time of surgery.
Patients were required to be between 18 to 85 years of age, have elected to undergo surgery for recent diagnosis of parotid or submandibular gland tumor, and qualified for anesthesia. […] Patients were excluded from study participation if nursing or pregnant or diagnosed with kidney disease, end stage liver disease, metastatic cancer, or any unstable medical condition. […] Blood and saliva samples were collected at baseline and on the day of surgery. Normal and tumor salivary gland tissue were collected during surgery. Drug levels in tissue, plasma, and saliva were measured by the GCMS method described herein.
An aliquot of the heptane layer was used for analysis. […] Samples volumes of 1 μL splitless were injected with an inlet temperature of 220° C. The flow rate was constant at 1 mL/min. An Agilent DB-5MS UI column was used (30 m length, 0.250 mm inner diameter, 0.25 micron film). […] Calibration curves were linear from 4 to 8000 ng/mL.

[4] = target: ALDH3A2 (Homo sapiens, UniProt P51648); test: ALDH enzymatic assay, recombinant ALDH3A2; format: biochemical; conditions: 5 μg/ml recombinant enzyme, 10 mM acetaldehyde, 20 μM Alda-341
Method: ALDH enzymatic assay: ALDH1A1, ALDH1A2, 2, 3A1, 3A2, 4A1, 5A1, 7A1 were measured as previously described using 5 μg/ml of recombinant protein (Chen, C. H., Cruz, L. A., and Mochly-Rosen, D. (2015) Pharmacological recruitment of aldehyde dehydrogenase 3A1 (ALDH3A1) to assist ALDH2 in acetaldehyde and ethanol metabolism in vivo. Proceedings of the National Academy of Sciences of the United States of America 112, 3074-3079). […] Assays were conducted in 50 mM NaPPi buffer (pH 7.4) in the presence of 2.5 mM NAD^+ and 10 mM substrate and measured in triplicate at 25° C. Dose response curve fits and EC50's were calculated using GraphPad Prism 7 software.

[5] = EpCAM+ cells isolated from SMG 2 weeks after 30 Gy

Chain of ALDH3A2 (P51648 whole entry): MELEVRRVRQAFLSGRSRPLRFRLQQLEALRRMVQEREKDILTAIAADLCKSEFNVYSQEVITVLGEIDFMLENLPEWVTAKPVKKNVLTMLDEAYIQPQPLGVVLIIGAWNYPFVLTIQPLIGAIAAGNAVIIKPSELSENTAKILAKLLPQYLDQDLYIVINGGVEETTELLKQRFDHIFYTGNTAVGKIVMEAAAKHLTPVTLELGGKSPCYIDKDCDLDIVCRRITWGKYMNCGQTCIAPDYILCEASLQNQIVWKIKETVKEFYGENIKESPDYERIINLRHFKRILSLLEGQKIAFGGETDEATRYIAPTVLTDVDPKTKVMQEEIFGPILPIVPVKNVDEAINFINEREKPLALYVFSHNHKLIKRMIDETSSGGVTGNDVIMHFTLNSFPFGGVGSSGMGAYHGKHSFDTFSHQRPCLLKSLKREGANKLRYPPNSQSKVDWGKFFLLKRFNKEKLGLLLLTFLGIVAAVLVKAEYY

C=C(C)[C@H]1CC=C(C)CC1 [Alda-341, D-limonene]
enzymatic activity of the lysate from Aldh3a1(−/−) mice ([1]; 400 μg/mL Aldh3a1(−/−) salivary sphere lysate): did not increase
increase of enzymatic activity of WT lysate ([1]; 400 μg/mL C57BL/6 WT salivary sphere lysate): approximately 30%
saliva production after radiation ([2]; 10% Alda-341 in chow from 1 w prior to radiation and continuously after, single 15 Gy or 30 Gy (6 Gy/d for 5 d)): retained near baseline saliva production levels
saliva production, Alda-341 stopped ([2]; Alda-341 from 24 h after radiation, stopped 8 weeks after radiation): rapid decline in saliva production
saliva levels, continuous Alda-341 ([2]; Alda-341 starting 24 h after the final dose of radiation, continuous, 20 weeks): sustained significantly higher saliva levels over 20 weeks
saliva production, Alda-341 begun late ([2]; Alda-341 treatment begun 8 weeks after radiation): did not show significant improvement in saliva production
apoptotic-related gene expression (RNA-sequencing) [2, 5]: a decrease in apoptotic-related gene expression
glutathione metabolism (RNA-sequencing) [2, 5]: increased glutathione metabolism
immune response (RNA-sequencing) [2, 5]: decreased immune response
more acinar cell preservation (PAS staining) vs group that never received Alda-341 ([2]; after 20 weeks, continuous Alda-341): ~70%
improvement in sphere-forming ability of dissociated SMG vs no treatment ([2]; continuous Alda-341 after radiation): ~30 fold
number of apoptotic cells (cleaved caspase 3 staining) ([2]; day 5 of the 30 Gy radiation dose, Alda-341 before radiation): reduced the number of apoptotic cells to near non-irradiated levels
preservation of acinar area ([2]; eight weeks after 30 Gy, Alda-341 from 1 w prior to radiation): 90%
average plasma drug levels after treatment [3]: 144.3 ng/mL
catalytic activity of ALDH3A2 [4]: did not increase
